Reference: the OligoGym collection
“And” between values parts separate entries of the source, which are not always exact repeats. Identical values can stand only once. After the bases stand the sugars from the 5' end (letter, count) and the backbone: PS all phosphorothioate, else s phosphorothioate and o phosphodiester by linkage. Methylation of C is not given here. k = constrained ethyl (cEt); d = 2'-deoxy (DNA)

The sequences below were run against MALAT1. Settings: ASO, A431, 0.005 µM.

Going from GAAACCGATTATGGAT (sugars k3 d10 k3, PS) to GAAACCTACAACACCC (sugars k3 d10 k3, PS), the target mRNA inhibition falls from 34% to 20%.

Going from GAAAGTGCCATGGTTG (sugars k3 d10 k3, PS) to GAACAACTCGCATCAC (sugars k3 d10 k3, PS), the target mRNA inhibition falls from 41% to 15%.

Compared with GAACCACAACAATTTA (sugars k3 d10 k3, PS), GAACCGGAGCAGGAAG (sugars k3 d10 k3, PS) is higher in target mRNA inhibition: 19% for the first, 28% for the second.

First: GAAGAATACCATCTGA (sugars k3 d10 k3, PS)
Second: GAAGAATCCCCCCCAA (sugars k3 d10 k3, PS)
The target mRNA inhibition of the first is lower: 5% for the first, 11% for the second.

Compared with GAAGAGATACCTGTCT (sugars k3 d10 k3, PS), GAAGAGCCAAGCACTC (sugars k3 d10 k3, PS) is higher in target mRNA inhibition: -22% for the first, -9% for the second.

Compared with GAAGTCTCGGGCTGCA (sugars k3 d10 k3, PS), GAATACCATCTGAAAG (sugars k3 d10 k3, PS) is higher in target mRNA inhibition: 6% for the first, 16% for the second.

Going from GAATGTTTCTTGTCAC (sugars k3 d10 k3, PS) to GAATTACTTCCGTTAC (sugars k3 d10 k3, PS), the target mRNA inhibition falls from 43% to 36%.

First: GACCCTACTGAAGAGC (sugars k3 d10 k3, PS)
Second: GACCTCGACACCATCG (sugars k3 d10 k3, PS)
The target mRNA inhibition of the first is lower: 32% for the first, 44% for the second.

First: GACCTGAAGTCAAGAC (sugars k3 d10 k3, PS)
Second: GACGGTTGAGAAGTGG (sugars k3 d10 k3, PS)
The target mRNA inhibition of the first is lower: -1% for the first, 25% for the second.

First: GACTAAAGGCTTCAGT (sugars k3 d10 k3, PS)
Second: GACTCTGGGAAACCTG (sugars k3 d10 k3, PS)
The target mRNA inhibition of the first is higher: 15% for the first, 1% for the second.

First: GAGAAATCGGAGCAGC (sugars k3 d10 k3, PS)
Second: GAGAAGAATCCCCCCC (sugars k3 d10 k3, PS)
The target mRNA inhibition of the first is lower: 15% for the first, 17% for the second.

First: GAGCAGCACGGGCTGT (sugars k3 d10 k3, PS)
Second: GAGGCTGACACTTCTC (sugars k3 d10 k3, PS)
The target mRNA inhibition of the first is higher: 14% for the first, -10% for the second.

First: GAGTTTGAGTGGTTTT (sugars k3 d10 k3, PS)
Second: GATCACTTTAGAGGCT (sugars k3 d10 k3, PS)
The target mRNA inhibition of the first is higher: 26% for the first, -8% for the second.

Going from GATCTGGTCCATTAAA (sugars k3 d10 k3, PS) to GATGTATATAGTTCAA (sugars k3 d10 k3, PS), the target mRNA inhibition falls from 25% to 7%.

Compared with GATTAGTAGTCAAAGC (sugars k3 d10 k3, PS), GATTCATGAGTATAAG (sugars k3 d10 k3, PS) is higher in target mRNA inhibition: 24% for the first, 50% for the second.

Going from GATTTGAACCCCGTCC (sugars k3 d10 k3, PS) to GCAAAATGGCGGACTT (sugars k3 d10 k3, PS), the target mRNA inhibition falls from -2% to -4%.

Going from GCAAAATGTACTCAGC (sugars k3 d10 k3, PS) to GCAAATCGCCATGGAA (sugars k3 d10 k3, PS), the target mRNA inhibition falls from 23% to 21%.

Going from GCAAGTTAAACTTATC (sugars k3 d10 k3, PS) to GCACTCATATGCAATT (sugars k3 d10 k3, PS), the target mRNA inhibition falls from 42% to 6%.

Compared with GCAGAGTTTGAGTGGT (sugars k3 d10 k3, PS), GCAGGGACGGTTGAGA (sugars k3 d10 k3, PS) is higher in target mRNA inhibition: -9% for the first, 8% for the second.

Going from GCATCTAGGCCATCAT (sugars k3 d10 k3, PS) to GCATTCCCACCCAAAA (sugars k3 d10 k3, PS), the target mRNA inhibition falls from 57% to 34%.

Compared with GCCAACAGCACAGCGG (sugars k3 d10 k3, PS), GCCAAGCCAAGCCGCC (sugars k3 d10 k3, PS) is higher in target mRNA inhibition: 8% for the first, 14% for the second.

Compared with GCCAAGCCGCCTGCTA (sugars k3 d10 k3, PS), GCCATGGTTGATATTT (sugars k3 d10 k3, PS) is lower in target mRNA inhibition: 20% for the first, 9% for the second.

First: GCCCCCCAGTTGCCGC (sugars k3 d10 k3, PS)
Second: GCCGCCTCTTAAAGCA (sugars k3 d10 k3, PS)
The target mRNA inhibition of the first is lower: -35% for the first, -11% for the second.

Going from GCCTACCGCACAGCTC (sugars k3 d10 k3, PS) to GCCTATCTTCTCCAGT (sugars k3 d10 k3, PS), the target mRNA inhibition rises from 26% to 27%.

Compared with GCCTCAATCCCACACC (sugars k3 d10 k3, PS), GCCTTGCAGGGACGGT (sugars k3 d10 k3, PS) is lower in target mRNA inhibition: 2% for the first, -10% for the second.

Going from GCGGGATCAGAACAGT (sugars k3 d10 k3, PS) to GCTACTGGCTGCATCG (sugars k3 d10 k3, PS), the target mRNA inhibition rises from 40% to 43%.

First: GCTCTATACTTTGAAG (sugars k3 d10 k3, PS)
Second: GCTGAGTGTTCCTGCA (sugars k3 d10 k3, PS)
The target mRNA inhibition of the first is higher: 51% for the first, 22% for the second.

Compared with GCTGCATCGAGGTGAG (sugars k3 d10 k3, PS), GCTGGTTATGACTCAG (sugars k3 d10 k3, PS) is lower in target mRNA inhibition: 24% for the first, 9% for the second.

First: GCTTAAGAGGGCAGGA (sugars k3 d10 k3, PS)
Second: GCTTTCCCTGTGGCCT (sugars k3 d10 k3, PS)
The target mRNA inhibition of the first is lower: -7% for the first, 10% for the second.

First: GGAAATCTTAGAAACG (sugars k3 d10 k3, PS)
Second: GGAATACTCTTCCAAG (sugars k3 d10 k3, PS)
The target mRNA inhibition of the first is higher: 36% for the first, 6% for the second.

First: GGACATCTCTTCCACA (sugars k3 d10 k3, PS)
Second: GGACATTGCCTCTTCA (sugars k3 d10 k3, PS)
The target mRNA inhibition of the first is lower: 24% for the first, 54% for the second.

Compared with GGACTTTCTCCCCCAA (sugars k3 d10 k3, PS), GGAGATCAGCTTCCGC (sugars k3 d10 k3, PS) is lower in target mRNA inhibition: -5% for the first, -7% for the second.

First: GGATCCAAGCTACTGG (sugars k3 d10 k3, PS)
Second: GGATTCTAGACAGACC (sugars k3 d10 k3, PS)
The target mRNA inhibition of the first is lower: 18% for the first, 44% for the second.

Compared with GGATTTTTACCAACCA (sugars k3 d10 k3, PS), GGCAAATCGCCATGGA (sugars k3 d10 k3, PS) is higher in target mRNA inhibition: 14% for the first, 22% for the second.

Compared with GGCAGTTATATTAGGT (sugars k3 d10 k3, PS), GGCCTTTTCTAACATA (sugars k3 d10 k3, PS) is lower in target mRNA inhibition: 16% for the first, 2% for the second.

Going from GGCTATCAAATTCATT (sugars k3 d10 k3, PS) to GGCTATTACCTGAAAA (sugars k3 d10 k3, PS), the target mRNA inhibition falls from 42% to 6%.

First: GGCTGGTTATGACTCA (sugars k3 d10 k3, PS)
Second: GGCTTTAAATGACGCA (sugars k3 d10 k3, PS)
The target mRNA inhibition of the first is higher: 40% for the first, 17% for the second.

First: GGGAAAAGTGGTTGCC (sugars k3 d10 k3, PS)
Second: GGGATTTGAACCCCGT (sugars k3 d10 k3, PS)
The target mRNA inhibition of the first is higher: 9% for the first, -1% for the second.

Going from GGGTTATGCTTATTCC (sugars k3 d10 k3, PS) to GGTCAGGAGAAAGTGC (sugars k3 d10 k3, PS), the target mRNA inhibition falls from 28% to 18%.

GGTTAAGCACTTTTAA (sugars k3 d10 k3, PS) showed a target mRNA inhibition of 38%.

With GAGATTTGGGCTTTAT (sugars k3 d10 k3, PS) the target mRNA inhibition was 34% and 33%.
GCACTTTTAAAGTCTG (sugars k3 d10 k3, PS) was tested, and the target mRNA inhibition was 74% and 91%.
